Experimental data as given in patent US5968929A, “Piperazino derivatives as neurokinin antagonists” (Schering Corporation, priority 1997, dated 1999).

Experiments:
[1] = molecular target: T1, human neurokinin 1 (NK1) receptor (Homo sapiens, UniProt P25103); assay: Neurokinin receptor binding assay, NK1 ([3H]-Substance P, CHO cell membranes); details: competition with [3H]-Substance P, Cheng and Prusoff
T1 construct: expressed in transfected cells; host or cells: Chinese hamster ovary (CHO) cells, membranes
Procedure: (§1) Neurokinin Receptor Binding Assay(s)
(§2) Chinese Hamster ovary (CHO) cells transfected with the coding regions for the human neurokinin 1 (NK1) of the human neurokinin 2 (NK2) receptors are grown in Dulbecco's minimal essential medium supplemented with 10% fetal calf serum, 0.1 mM non-essential amino acids, 2 mM glutamine, 100 units/ml of penicillin and streptomycin, and 0.8 mg of G418/ml at 37° C. in a humidified atmosphere containing 5% CO2.
(§3) Cells are detached from T-175 flasks with a sterile solution containing 5 mM EDTA in phosphate buffered saline. Cells are harvested by centrifugation and washed in RPMI media at […] for 5 minutes. The pellet is resuspended in Tris-HCl(pH7.4) containing 1 uM phosphoramidon and 4 ug/ml of chymostatin at a cell density of 30×10^6 cells/ml. The suspension is then homogenized in a Brinkman Polytron (setting 5) for 30-45 seconds. The homogenate is centrifuged at 800×g for 5 min at 4° C. to collect unbroken cells and nuclei. The supernatant is centrifuged in a Sorvall RC5C at 19,000 rpm ([…]) for 30 min at 4° C. The pellet is resuspended, an aliquot is removed for a protein determination (BCA) and washed again. The resulting pellet is stored at -80° C.
(§4) Binding is initiated by the addition of 100 μl of membrane (10-20 μg) containing the human NK-1 or NK-2 receptor in a final volume of 200 μl. After 40 minutes at room temperature, the reaction is stopped by rapid filtration onto Whatman GF/C filters which have been presoaked in 0.3% polyethylenimine. Filters are washed 2 times with 3 ml of 50 mM Tris-HCl (pH7.4). Filters are added to 6 mls of Ready-Safe liquid scintillation cocktail and quantified by liquid scintillation spectrometry in a LKB 1219 RackBeta counter. Non-specific binding is determined by the addition of either 1 μM of CP-99994 (NK1) or 1 μM SR-48968 (NK2) (both synthesized by the chemistry department of Schering-Plough Research Institute).

[2] = molecular target: T2, human neurokinin 2 (NK2) receptor (Homo sapiens, UniProt P21452); assay: Neurokinin receptor binding assay, NK2 ([3H]-Neurokinin A, CHO cell membranes); details: competition with [3H]-Neurokinin A, Cheng and Prusoff
T2 construct: expressed in transfected cells; host or cells: Chinese hamster ovary (CHO) cells, membranes
T2 sequence (P21452 1-398): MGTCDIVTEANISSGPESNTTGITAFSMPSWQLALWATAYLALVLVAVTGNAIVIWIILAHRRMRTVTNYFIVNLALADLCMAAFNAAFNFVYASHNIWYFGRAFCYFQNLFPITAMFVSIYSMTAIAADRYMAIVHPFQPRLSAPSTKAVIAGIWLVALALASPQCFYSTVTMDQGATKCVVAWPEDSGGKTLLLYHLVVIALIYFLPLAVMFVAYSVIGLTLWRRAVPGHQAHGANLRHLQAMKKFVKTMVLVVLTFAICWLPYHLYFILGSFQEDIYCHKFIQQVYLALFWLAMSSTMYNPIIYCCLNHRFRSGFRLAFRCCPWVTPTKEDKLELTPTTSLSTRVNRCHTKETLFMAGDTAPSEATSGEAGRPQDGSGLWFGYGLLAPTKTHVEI
Procedure: as §1, §2, §3, §4

T1 sequence (P25103 whole entry): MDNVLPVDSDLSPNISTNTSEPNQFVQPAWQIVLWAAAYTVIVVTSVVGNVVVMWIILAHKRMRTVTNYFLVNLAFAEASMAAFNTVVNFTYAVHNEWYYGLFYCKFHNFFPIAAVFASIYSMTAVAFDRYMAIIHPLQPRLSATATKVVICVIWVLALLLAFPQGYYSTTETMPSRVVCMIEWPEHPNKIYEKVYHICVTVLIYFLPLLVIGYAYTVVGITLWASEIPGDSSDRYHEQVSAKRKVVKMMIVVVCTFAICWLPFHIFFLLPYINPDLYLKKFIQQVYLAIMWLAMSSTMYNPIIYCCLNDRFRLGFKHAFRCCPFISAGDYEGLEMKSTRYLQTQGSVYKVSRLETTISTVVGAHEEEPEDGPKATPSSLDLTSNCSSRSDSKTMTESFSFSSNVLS

Structure (SMILES) | Ki [1] | Ki [2]
Cc1cc(C)cc(C(=O)N2CCN(C(=O)CCN3C[C@@H]4C[C@H]3CN4C(=O)[C@H](Cc3ccccc3)NC(=O)OC(C)(C)C)[C@H](c3ccc(Cl)c(Cl)c3)C2)c1 | 45 nM | 14 nM
CNC(=O)N[C@H](Cc1ccccc1)C(=O)N1C[C@@H]2C[C@H]1CN2CCC(=O)N1CCN(C(=O)c2cc(C)cc(C)c2)C[C@H]1c1ccc(Cl)c(Cl)c1 [35 (R = --CH3)] | 6.3 nM | 0.93 nM
CNC(=O)c1ccc(CN2[C@@H]3CC[C@H]2C[C@@H](OCC(=O)N2CCN(C(=O)c4cc(C)cc(C)c4)C[C@H]2c2ccc(Cl)c(Cl)c2)C3)cc1 [Example 58] | 19 nM | 57 nM
Cc1cc(C)cc(C(=O)N2CCN(C(=O)CCN3C[C@@H]4C[C@H]3CN4C(=O)[C@@H](N)Cc3cccs3)[C@H](c3ccc(Cl)c(Cl)c3)C2)c1 | 16 nM | 0.35 nM
Cc1cc(C)cc(C(=O)N2CCN(C(=O)CO[C@H]3C[C@H]4CC[C@@H](C3)N4C(=O)OC(C)(C)C)[C@H](c3ccc(Cl)c(Cl)c3)C2)c1 [Example 56, (Endo)-1,1-dimethylethyl 3-[2-[2(R)-(3,4-dichlorophenyl)-4-(3,5-dimethylbenzoyl)-1-piperazinyl]-2-oxoethoxy]-8-aza[3.2.1]octane-8-carboxylate] | > 100 nM | 55 nM
Cc1cc(C)cc(C(=O)N2CCN(C(=O)CN[C@H]3C[C@H]4CC[C@@H](C3)N4C(=O)OC(C)(C)C)[C@H](c3ccc(Cl)c(Cl)c3)C2)c1 [Example 67] | 159 nM | 9.3 nM

Further lines, results first:

Ki [1] | Ki [2] | Structure (SMILES)
34 nM | 24 nM | Cc1cc(C)cc(C(=O)N2CCN(C(=O)CCN3C[C@@H]4C[C@H]3CN4C(=NC#N)Nc3ccccc3)[C@H](c3ccc(Cl)c(Cl)c3)C2)c1 [Example 30]
1.8 nM | 2.6 nM | Cc1cc(C)cc(C(=O)N2CCN(C(=O)CO[C@@H]3C[C@@H]4C[C@H]3CN4Cc3ccsc3)[C@H](c3ccc(Cl)c(Cl)c3)C2)c1 [Example 50, 2(R)-(3,4-Dichlorophenyl)-4-(3,5-dimethylbenzoyl)-1-[[[exo-2-(3-thienylmethyl)-1(S),4(S)-2-azabicyclo[2.2.1]heptan-5-yl)oxy]acetyl]piperazine]
1.5 nM | 4.4 nM | CC(=O)Nc1ccc(CN2C[C@@H]3C[C@H]2C[C@H]3OCC(=O)N2CCN(C(=O)c3cc(C)cc(C)c3)C[C@H]2c2ccc(Cl)c(Cl)c2)cc1 [Example 51]
